Measured values from PubChem BioAssay AID202 (DTP/NCI, 2004).
“And” between values parts separate entries of the source, which are not always exact repeats. Identical values can stand only once. *1 amine or outer side, *2 acyl side, *3 side chain or, on linkers, in order; H or OH if unused. Where a SMILES comes first, the peptide text is derived from it. Bridges are numbered along the chain shown (N, C = ends). Roman numbers before positions name the chains, in order. [ ]: non-standard residue; d: D form. Actinocin(9to1) = Cc1c2oc3c(C)ccc(C(=O)[*:1])c3nc-2c(C(=O)[*:2])c(N)c1=O; aThr = C[C@H](O)[C@H](N)C(=O)O; NMeV = CN[C@H](C(=O)O)C(C)C; Sar = CNCC(=O)O

System: HT29 xenograft, nude mice, s.c., tumor weight T/C%
Assay: NCI In Vivo Anticancer Drug Screen. Data for tumor model HT29;CX-1 Human Adenocarcinoma (MER+) (subcutaneous) in NU/NU Swiss (nude) mice
Conditions: endpoint: optimum tumor weight change, higher = larger tumour
Protocol: The antitumor activity of compounds was measured in mice bearing transplantable tumors. Survival or tumor size were measured and the results are expressed as the measurement made in the treated group (T) divided by the measurement made in the vehicle treated control group (C). The tumor model used in this assay is HT29;CX-1 Human Adenocarcinoma (MER+) (subcutaneous) in NU/NU Swiss (nude) mice

[1] = dose: 25.0 mg/kg/injection, schedule: Q04DX003 (ip), vehicle: Klucel (hydroxypropylcellulose) (HPC)
[2] = dose: 100.0 mg/kg/injection, schedule: Q04DX003 (ip), vehicle: Klucel (hydroxypropylcellulose) (HPC)
[3] = dose: 200.0 mg/kg/injection, schedule: Q04DX003 (ip), vehicle: Klucel (hydroxypropylcellulose) (HPC)
[4] = dose: 50.0 mg/kg/injection, schedule: Q04DX003 (ip), vehicle: saline

**Q.** How did the T/C (dose: 25.0 mg/kg/injection, schedule: Q01DX005 (ip), vehicle: Klucel (hydroxypropylcellulose) (HPC)) turn out when CN(CO)c1nc(N(C)CO)nc(N(C)CO)n1 was run?
**A.** Its T/C is 75 % of control.

**Q.** What about the T/C (dose: 25.0 mg/kg/injection, schedule: Q04DX005 (ip), vehicle: Klucel (hydroxypropylcellulose) (HPC)) of the same compound?
**A.** The T/C was 62 % of control.

**Q.** And the T/C (dose: 25.0 mg/kg/injection, schedule: Q07DX005 (ip), vehicle: Klucel (hydroxypropylcellulose) (HPC))?
**A.** Its T/C is 93 % of control.

**Q.** And the T/C (dose: 50.0 mg/kg/injection, schedule: Q01DX005 (ip), vehicle: Klucel (hydroxypropylcellulose) (HPC))?
**A.** The T/C was 102 % of control and 123 % of control.

**Q.** And the T/C (dose: 50.0 mg/kg/injection, schedule: Q04DX005 (ip), vehicle: Klucel (hydroxypropylcellulose) (HPC))?
**A.** The T/C was 119 % of control and 120 % of control.

**Q.** What about the T/C (dose: 50.0 mg/kg/injection, schedule: Q07DX005 (ip), vehicle: Klucel (hydroxypropylcellulose) (HPC)) of the same compound?
**A.** The T/C was 99 % of control.

**Q.** What about the T/C (dose: 100.0 mg/kg/injection, schedule: Q04DX003 (ip), vehicle: suspension in saline) of the same compound?
**A.** The T/C was 75 % of control.

**Q.** And the T/C (dose: 100.0 mg/kg/injection, schedule: Q04DX005 (ip), vehicle: Klucel (hydroxypropylcellulose) (HPC))?
**A.** Its T/C is 99 % of control and 116 % of control.

**Q.** And the T/C (dose: 100.0 mg/kg/injection, schedule: Q07DX005 (ip), vehicle: Klucel (hydroxypropylcellulose) (HPC))?
**A.** Its T/C is 48 % of control.

**Q.** And the T/C (dose: 200.0 mg/kg/injection, schedule: Q07DX005 (ip), vehicle: Klucel (hydroxypropylcellulose) (HPC))?
**A.** The T/C was 47 % of control and 58 % of control.

**Q.** Which results are given for CC(=O)c1c(O)c(C)c(O)c2c1OC1=CC(=O)C(C(C)=O)C(=O)C12C (stereo not given)?
**A.** T/C (dose: 50.0 mg/kg/injection, schedule: Q01DX003 (ip), vehicle: sodium bicarbonate): 88 % of control; T/C (dose: 100.0 mg/kg/injection, schedule: Q01DX003 (ip), vehicle: sodium bicarbonate): 97 % of control; T/C (dose: 200.0 mg/kg/injection, schedule: Q01DX003 (ip), vehicle: sodium bicarbonate): 82 % of control

**Q.** How did the T/C [1] turn out when CC(=O)OCC(=O)[C@@]12OC(C)(C)O[C@@H]1C[C@H]1[C@@H]3CC(C=O)=C4C=C(OCCCl)CC[C@]4(C)[C@@]3(F)[C@@H](O)C[C@@]12C was run?
**A.** Its T/C is 52 % of control and 59 % of control.

**Q.** COc1cccc2c1C(=O)c1c(O)c3c(c(O)c1C2=O)C[C@@](O)(C(=O)CO)C[C@@H]3OC1CC(N)C(OC)C(C)O1 (stereo not given in full) was tested. Which T/C (dose: 1.56 mg/kg/injection, schedule: Q04DX003 (ip), vehicle: saline) did it give?
**A.** The T/C was 80 % of control.

**Q.** For CN(C)N=Nc1cn[nH]c1C(N)=O, which T/C [1] is on record?
**A.** Its T/C is 69 % of control.

**Q.** What about the T/C (dose: 50.0 mg/kg/injection, schedule: Q04DX003 (ip), vehicle: Klucel (hydroxypropylcellulose) (HPC)) of the same compound?
**A.** The T/C was 123 % of control.

**Q.** And the T/C [2]?
**A.** The T/C was 79 % of control.

**Q.** And the T/C [3]?
**A.** The T/C was 88 % of control.

**Q.** With CS(=O)(=O)OCCN(CCOS(C)(=O)=O)c1ccc(C=Nc2ccc(-c3csc(COc4ccccc4)n3)cc2)cc1 as the compound, how does the T/C [2] read?
**A.** Its T/C is 71 % of control.

**Q.** What about the T/C [3] of the same compound?
**A.** The T/C was 70 % of control.

**Q.** For O=Cc1ccc(O)c(O)c1, which T/C (dose: 100.0 mg/kg/injection, schedule: Q04DX003 (ip), vehicle: saline with Tween-80) is on record?
**A.** The T/C was 94 % of control.

**Q.** With C=CC(=O)N1CN(C(=O)C=C)CN(C(=O)C=C)C1 as the compound, how does the T/C (dose: 3.13 mg/kg/injection, schedule: Q01DX003 (ip), vehicle: saline with Tween-80) read?
**A.** The T/C was 62 % of control.

**Q.** And the T/C (dose: 6.25 mg/kg/injection, schedule: Q01DX003 (ip), vehicle: saline with Tween-80)?
**A.** The T/C was 93 % of control.

**Q.** How did the T/C (dose: 150.0 micrograms/kg/injection, schedule: Q04DX003 (ip), vehicle: saline) turn out when Cc1c2oc3c(C)ccc(C(=O)N[C@@H]4C(=O)N[C@H](C(C)C)C(=O)N5CCC[C@H]5C(=O)N(C)CC(=O)N(C)[C@@H](C(C)C)C(=O)O[C@H]4C)c3nc-2c(C(=O)N[C@@H]2C(=O)N[C@H](C(C)C)C(=O)N3CCC[C@H]3C(=O)N(C)CC(=O)N(C)[C@@H](C(C)C)C(=O)O[C@H]2C)c(N)c1=O (I: [aThr][dV]P[Sar][NMeV] / II: [aThr][dV]P[Sar][NMeV]; ester I:1-I:C, II:1-II:C; linker I:N-II:N via Actinocin(9to1)) was run?
**A.** Its T/C is 54 % of control.

**Q.** What about the T/C (dose: 300.0 micrograms/kg/injection, schedule: Q04DX003 (ip), vehicle: saline) of the same compound?
**A.** The T/C was 42 % of control.

**Q.** How did the T/C [4] turn out when N=C(N)Sc1ccccn1 was run?
**A.** The T/C was 77 % of control.

**Q.** And the T/C (dose: 100.0 mg/kg/injection, schedule: Q04DX003 (ip), vehicle: saline)?
**A.** The T/C was 112 % of control.

**Q.** And the T/C (dose: 200.0 mg/kg/injection, schedule: Q04DX003 (ip), vehicle: saline)?
**A.** The T/C was 65 % of control.

**Q.** With C[n+]1c(-c2cccc3ccccc23)c2cc(N)ccc2c2ccccc21 as the compound, how does the T/C (dose: 1.5 mg/kg/injection, schedule: Q04DX003 (ip), vehicle: saline) read?
**A.** The T/C was 86 % of control.

**Q.** Cc1c(CNc2ccc(C(=O)NC(CC(=O)O)C(=O)O)cc2)ccc2nc(N)nc(N)c12 (stereo not given) was tested. Which T/C (dose: 3.0 mg/kg/injection, schedule: Q04DX003 (ip), vehicle: saline with Tween-80) did it give?
**A.** The T/C was 109 % of control.

**Q.** What about the T/C (dose: 6.0 mg/kg/injection, schedule: Q04DX003 (ip), vehicle: saline with Tween-80) of the same compound?
**A.** The T/C was 153 % of control.

**Q.** And the T/C (dose: 12.0 mg/kg/injection, schedule: Q04DX003 (ip), vehicle: saline with Tween-80)?
**A.** The T/C was 92 % of control.

**Q.** CN1CCN(CCCN2c3ccccc3Sc3ccc(C(F)(F)F)cc32)CC1 was tested. Which T/C [4] did it give?
**A.** Its T/C is 79 % of control.

**Q.** With CC1OC(OC2CC(O)(C(=O)CO)Cc3c(O)c4c(c(O)c32)C(=O)c2ccccc2C4=O)CC(N)C1O (stereo not given) as the compound, how does the T/C (dose: 0.25 mg/kg/injection, schedule: Q04DX003 (ip), vehicle: water) read?
**A.** The T/C was 89 % of control.
